Laboratory results: the supplement of paper PMC13380429

Legend:
Settings in all cases: 72 h
Calu-3 [1] = assay: drug sensitivity score (DSS) for viability; higher = more toxic; extreme values may be limits of the assay
Vero E6 [2] = assay: as above
U2OS [3] = assay: as above
Caco-2 [4] = assay: as above
HepG2 [5] = assay: as above
Calu-3 [6] = assay: cell viability relative to DMSO; higher = less toxic
Vero E6 [7] = assay: as above
U2OS [8] = assay: as above
Caco-2 [9] = assay: as above
HepG2 [10] = assay: as above
Calu-3 [11] = assay: relative viability EC50 (midpoint between 100% and the lowest measured viability); higher = less toxic
Vero E6 [12] = assay: as above
U2OS [13] = assay: as above
Caco-2 [14] = assay: as above
HepG2 [15] = assay: as above

SMILES | drug sensitivity score (Calu-3 [1]) | drug sensitivity score (Vero E6 [2]) | drug sensitivity score (U2OS [3]) | drug sensitivity score (Caco-2 [4]) | drug sensitivity score (HepG2 [5]) | cell viability (Calu-3 [6]; 1 nM) | cell viability (Calu-3 [6]; 10 nM) | cell viability (Calu-3 [6]; 100 nM) | cell viability (Calu-3 [6]; 1000 nM) | cell viability (Calu-3 [6]; 10000 nM) | cell viability (Vero E6 [7]; 1 nM) | cell viability (Vero E6 [7]; 10 nM) | cell viability (Vero E6 [7]; 100 nM) | cell viability (Vero E6 [7]; 1000 nM) | cell viability (Vero E6 [7]; 10000 nM) | cell viability (U2OS [8]; 1 nM) | cell viability (U2OS [8]; 10 nM) | cell viability (U2OS [8]; 100 nM) | cell viability (U2OS [8]; 1000 nM) | cell viability (U2OS [8]; 10000 nM) | cell viability (Caco-2 [9]; 1 nM) | cell viability (Caco-2 [9]; 10 nM) | cell viability (Caco-2 [9]; 100 nM) | cell viability (Caco-2 [9]; 1000 nM) | cell viability (Caco-2 [9]; 10000 nM) | cell viability (HepG2 [10]; 1 nM) | cell viability (HepG2 [10]; 10 nM) | cell viability (HepG2 [10]; 100 nM) | cell viability (HepG2 [10]; 1000 nM) | cell viability (HepG2 [10]; 10000 nM) | relative viability EC50 (Calu-3 [11]) | relative viability EC50 (Vero E6 [12]) | relative viability EC50 (U2OS [13]) | relative viability EC50 (Caco-2 [14]) | relative viability EC50 (HepG2 [15])
CC1(CN)Cc2ccccc2C1 [ORG-9768] | 0 | 0 | 0 | 0 | 0 | 109% | 105% | 95.4% | 102% | 96.9% | 91.2% | 96.8% | 94% | 98.5% | 109% | 99.5% | 98% | 101% | 102% | 102% | 93% | 87.1% | 101% | 93.9% | 110% | 98% | 109% | 96.3% | 112% | 102% | > 10 µM | > 10 µM | > 10 µM | > 10 µM | > 10 µM
CN1CC[C@@H]2CN3CCc4cccc(c43)[C@@H]2C1 [SDZ-SER-082] | 0 | 0 | 0 | 0 | 0 | 95.7% | 102% | 114% | 94.9% | 100% | 95.1% | 92.7% | 95.6% | 92.5% | 103% | 98.1% | 97.8% | 98.8% | 100% | 95.2% | 86.8% | 98.7% | 93.4% | 103% | 100% | 106% | 103% | 104% | 95.8% | 110% | > 10 µM | > 10 µM | > 10 µM | > 10 µM | > 10 µM
CC1(C)CC(=O)c2c(C(F)(F)F)nn(-c3ccc(C(N)=O)c(N[C@H]4CC[C@H](O)CC4)c3)c2C1 [SNX-2112] | 18.6 | 10.5 | 26.1 | 17.3 | 30.4 | 99.9% | 103% | 44.6% | 35.7% | 35.1% | 95.3% | 101% | 99.8% | 44.9% | 26.9% | 100% | 102% | 27.1% | 2.7% | 1.6% | 95.2% | 102% | 59.3% | 34.4% | 32.7% | 108% | 96.3% | 3.7% | 0.4% | 1.1% | 0.0505 µM | 0.639 µM | 0.0659 µM | 0.0844 µM | 0.0313 µM
Cc1[nH]c(/C=C2\C(=O)Nc3cc(-c4ccccc4)ccc32)c(C)c1CCC(=O)O [SU16f] | 0 | 0 | 0.1 | 0.7 | 1 | 99.8% | 108% | 107% | 103% | 104% | 92.9% | 93.3% | 93.8% | 92.8% | 87% | 104% | 97% | 102% | 95.5% | 89.1% | 98.7% | 100% | 97.5% | 91.9% | 83.3% | 92.3% | 95.1% | 87.6% | 97.9% | 76.8% | > 10 µM | > 10 µM | > 10 µM | > 10 µM | > 10 µM
C/C(=N\c1ccccc1N)c1c(C)cc(=O)n(O)c1O [SUN-B-8155] | 0 | 0 | 0 | 0 | 0.8 | 110% | 115% | 91.8% | 104% | 110% | 101% | 104% | 101% | 98.6% | 104% | 97.3% | 104% | 98.9% | 99.7% | 96.3% | 102% | 105% | 99.4% | 103% | 96.2% | 101% | 104% | 102% | 99.7% | 77.3% | > 10 µM | > 10 µM | > 10 µM | > 10 µM | > 10 µM
C[C@H](C[C@H](N)C(=O)O)C(=O)O [SYM-2081] | 0 | 0 | 0 | 0 | 0 | 102% | 88.4% | 96.6% | 95.3% | 102% | 101% | 102% | 95.1% | 104% | 93.4% | 100% | 97.5% | 100% | 97.7% | 106% | 103% | 96% | 105% | 97.5% | 98.4% | 104% | 88.4% | 91.9% | 96.6% | 93.8% | > 10 µM | > 10 µM | > 10 µM | > 10 µM | > 10 µM
Cc1cc(C(=O)Nc2cc(Oc3ccc4nc(NC(=O)C5CC5)cn4n3)ccc2C)n(C)n1 [TAK-593] | 0 | 0 | 0 | 0.9 | 0.7 | 94.6% | 102% | 97.6% | 101% | 98.3% | 99.6% | 101% | 96.3% | 95.4% | 91.1% | 101% | 103% | 98.4% | 95.1% | 94.1% | 98.4% | 99% | 93.2% | 97.6% | 80.5% | 99.1% | 95.5% | 93.1% | 104% | 75.4% | > 10 µM | > 10 µM | > 10 µM | > 10 µM | > 10 µM
